{"source": "patent US7879914B2", "about": "“Methods for treating viral infections using polyamine analogs” (Pathlogica LLC, priority 2005, dated 2011)", "key": {"[1]": {"system": "SIVmac251", "assay": "SIVmac251-infected, CD8-depleted animals, 250 mg/m^2 on alternate weeks", "format": "in vivo, rhesus macaque", "description": "These experiments once again used SIVmac251-infected, CD8-depleted animals, and again treatment was initiated at five days p.i. For this experiment, however, 250 mg/m^2 PA-001 (MGBG) was used and the animals were treated on alternate weeks, as is done in humans. Two animals were SIVmac251-infected, CD8-depleted, and PA-001 treated, and two were not drug treated, SIVmac251-infected, CD8-depleted controls. As of the time this study was conducted, the treated animals had received four doses of PA-001 and lived past day 55. In contrast, the non-treated animals developed AIDS and SIV encephalitis (SIVE) and in fact, one of the CD8-depleted, non-treated animals had died of AIDS and SIVE and the second non PA-001 treated animal was scheduled for sacrifice due to AIDS.\nSIV-infected, CD8-depleted animals without PA-001 treatment (EJ02 and EL95) had higher counts of total monocytes (top) and the CD14+CD16+ subset (bottom). In fact, one of the untreated animals (EJ02) died of AIDS and SIVE at day 55 p.i."}, "[2]": {"conditions": "patients, Int. J. Cancer 26, 571 (1980); cited from earlier work"}}, "data": [{"compound": "CC(/C=N/NC(=N)N)=N\\NC(=N)N", "note": "[MGBG]", "values": [{"measurement": "CD14+ and CD16+ monocyte populations", "setting": "[1]; detailed flow cytometry", "value": "significant decreases"}, {"measurement": "survival of treated animals", "setting": "[1]; four doses of 250 mg/m^2, alternate weeks", "value": "> 55", "unit": "days"}, {"measurement": "absolute numbers of total monocytes", "setting": "[1]; vs non-treated animals, FIG. 11", "value": "lower absolute numbers"}, {"measurement": "toxicity in an anti-cancer regimen", "setting": "[2]", "value": "unacceptably toxic"}]}]}
